Patent US12723063B2, “GIPR-agonist compounds” (Eli Lilly and Company, priority 2019, dated 2026)

Test system: insulin secretion
Test: In vivo effect on insulin secretion (ivGTT) in male Wistar rats
Design: species or system Wistar rat
Experimental: Male Wistar rats with femoral artery and femoral vein canulas (Envigo, Indianapolis, IN) (280-320 grams) are single-housed in polycarbonate cages with filter tops. Rats maintained on a 12:12 h light-dark cycle (lights on at 6:00 A.M.) at 21° C. and receive food and deionized water ad libitum. Rats are randomized by body weight and dosed 1.5 mL/kg subcutaneously (s.c.) at doses of 0.3, 1.0, 3, 10, 30, and 100 nmol/kg 16 hours prior to glucose administration then fasted. Animals are weighed and anesthetized with sodium pentobarbital dosed intraperitoneally (i.p.) (65 mg/kg, 30 mg/mL). At time 0, a blood sample is collected into EDTA tubes after which glucose is administered intravenously (i.v.) ([…], 5 mL/kg). Blood samples are collected for glucose and insulin levels at 2, 4, 6, 10, 20 and 30 min post-intravenous administration of glucose. Plasma glucose levels are determined using a clinical chemistry analyzer. Plasma insulin is determined using an electrochemiluminescence assay (Meso Scale, Gaithersburg, MD). […] Results are presented (SEM)(N).

CC[C@H](C)[C@H](NC(=O)[C@H](CCCCN)NC(=O)[C@H](CC(=O)O)NC(=O)[C@H](CC(C)C)NC(=O)[C@](C)(CC(C)C)NC(=O)[C@@H](NC(=O)[C@H](CO)NC(=O)[C@H](Cc1ccc(O)cc1)NC(=O)[C@H](CC(=O)O)NC(=O)[C@H](CO)NC(=O)[C@@H](NC(=O)[C@H](Cc1ccccc1)NC(=O)[C@@H](NC(=O)CNC(=O)[C@H](CCC(=O)O)NC(=O)C(C)(C)NC(=O)[C@@H](N)Cc1ccc(O)cc1)[C@@H](C)O)[C@@H](C)CC)[C@@H](C)CC)C(=O)N[C@@H](Cc1c[nH]cn1)C(=O)N[C@@H](CCC(N)=O)C(=O)NC(C)(C)C(=O)N[C@@H](CC(=O)O)C(=O)N[C@@H](Cc1ccccc1)C(=O)N[C@H](C(=O)N[C@@H](CCC(=O)O)C(=O)N[C@@H](Cc1ccc(O)cc1)C(=O)N[C@@H](CCCCNC(=O)COCCOCCNC(=O)COCCOCCNC(=O)CC[C@H](NC(=O)CCCCCCCCCCCCCCCCCCC(=O)O)C(=O)O)C(=O)N[C@@H](CC(C)C)C(=O)N[C@@H](CCC(=O)O)C(=O)NCC(=O)NCC(=O)N1CCC[C@H]1C(=O)N[C@@H](CO)C(=O)N[C@@H](CO)C(=O)NCC(=O)N[C@@H](C)C(=O)N1CCC[C@H]1C(=O)N1CCC[C@H]1C(=O)N1CCC[C@H]1C(=O)N[C@@H](CO)C(N)=O)C(C)C [Example 5]
insulin secretion during intravenous glucose tolerance test (0.3 nmol/kg s.c. 16 hours prior to glucose): 36.2 | insulin secretion during intravenous glucose tolerance test (1.0 nmol/kg s.c. 16 hours prior to glucose): 45.3 | insulin secretion during intravenous glucose tolerance test (3.0 nmol/kg s.c. 16 hours prior to glucose): 80.6 | insulin secretion during intravenous glucose tolerance test (10 nmol/kg s.c. 16 hours prior to glucose): 122.0 | insulin secretion during intravenous glucose tolerance test (30 nmol/kg s.c. 16 hours prior to glucose): 144 | insulin secretion during intravenous glucose tolerance test (100 nmol/kg s.c. 16 hours prior to glucose): 212.7 | Insulin secretion (ivGTT) ED50 (s.c., n = 1): 18.4 (n = 1) nmol/kg
